In ChEMBL document CHEMBL1127025, “(E)-3-[[[[6-(2-carboxyethenyl)-5-[[8-(4- methoxyphenyl)octyl]oxy]-2-pyridinyl]-methyl]thio]methyl]benzoic acid: a novel high-affinity leukotriene B4 receptor antagonist” (J Med Chem, 1993) one finds Ki, IC50 and ED50 data, which are given here for two compounds.

The target in assay [1] is T1, Leukotriene B4 receptor 1 (Homo sapiens, UniProt Q15722). The experiment in a line: Binding affinity against LTB4 receptors in human PMNs.
The target of assay [2] is T1, Leukotriene B4 receptor 1. The experiment in a line: Inhibitory concentration against LTB4 receptors in human PMNs.
Assay [3] is filed under the species Mus musculus. The experiment in a line: Inhibition of LTB4-induced PMN infiltration at 250 ng/mL in mouse. The format is functional.
Assay [4] relates to Mus musculus. The experiment in a line: Effective dose for neutrophil infiltration after administration of 1 mg of arachidonic acid in mouse ear. The format is functional.
The species named for another assay is Homo sapiens. The experiment in a line: Inhibitory concentration against LTB4 induced degranulation in human PMNs. The format is functional.
For assay [5], the system named is Mus musculus. The experiment in a line: Effective dose for edematous response after administration of 1 mg of arachidonic acid in mouse ear. The class given is functional.

T1 sequence (Q15722 whole entry): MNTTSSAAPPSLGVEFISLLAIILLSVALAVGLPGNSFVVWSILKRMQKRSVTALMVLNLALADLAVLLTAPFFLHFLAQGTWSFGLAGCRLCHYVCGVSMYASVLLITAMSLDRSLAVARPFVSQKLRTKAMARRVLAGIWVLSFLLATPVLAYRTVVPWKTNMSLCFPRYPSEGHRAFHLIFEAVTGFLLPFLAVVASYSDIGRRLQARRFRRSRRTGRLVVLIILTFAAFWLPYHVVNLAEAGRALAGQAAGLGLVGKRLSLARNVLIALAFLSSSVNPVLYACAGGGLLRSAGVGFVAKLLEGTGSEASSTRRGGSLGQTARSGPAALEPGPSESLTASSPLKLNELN

The Ki is the equilibrium dissociation constant of an inhibitor or competing ligand from its target. Read a high Ki as weaker binding. For `CCCCCCCCCCOc1ccc(CC(O)c2cccc(C(=O)O)c2)nc1/C=C/C(=O)O` (configuration not stated), in assay [1], the Ki was 280 nM.

One may read the IC50 as the concentration that gives 50% inhibition. Low readings indicate higher potency, high ones lower potency. As to `COc1ccc(CCCCCCCCOc2ccc(CSCc3cccc(C(=O)O)c3)nc2/C=C/C(=O)O)cc1`, the values for the IC50 (in assay [2]; in the assay filed under Homo sapiens) were 131 nM and 268 nM, respectively. Besides, the ED50 was 7.1 mg/kg in the assay listed under Mus musculus [3], 0.39 mg ear-1 in the assay with Mus musculus [4] and 0.58 mg ear-1 in the assay with Mus musculus [5]. The same compound displayed a Ki in assay [1] of 7.1 nM.
